Laboratory results taken from ChEMBL document CHEMBL3507680, “University of Dundee, Gates Library screen for HepG2 cell viability”.

Experiment: Human HepG2 cell viability assay in 384 well format
Assay type: toxicity, cell-based
Design: dose 125 nL, time 70.5 hour; cytotoxicity at 70.5 h: concentration not given beside the values
Details: HepG2 cells, read-out: Inhibition

Row | SMILES | cytotoxicity at 70.5 h
1 | CC(C)C(C)(C#N)NC(=O)Cn1cc(-c2ccccc2)cn1 (centres undefined) | -5.67%
2 | CC(C)CCn1cc(C(C(=O)O)N2CCC(N3CCSCC3)CC2)cn1 (centres undefined) | 3.77%
3 | COCC1CN(Cc2ccccn2)Cc2nn(C)cc21 (centres undefined) | -7.74%
4 | CCCOc1ccc2c(c1)OCC(C(=O)NC(C)Cn1ccnc1)=C2 (centres undefined) | -6.31%
5 | Cc1cc2c(=O)n3c(nc2s1)CCN(Cc1[nH]cnc1C)CC3 | -9.2%
6 | Cc1ccc(S(=O)(=O)Cc2noc([C@@H]3C[C@@H](O)CN3C)n2)cc1 | -2.56%
7 | CCc1nc(C2CCCN2CCS(=O)(=O)c2ccccc2)no1 (centres undefined) | -1.81%
8 | CC(C)(NS(C)(=O)=O)C(=O)NCc1cccc(Br)c1 | -7.07%
9 | O[C@H]1CCN(CC2CCOC2)[C@H]1Cc1ccncc1 (some centres undefined) | -11.6%
10 | COc1ccccc1N1CCN(C(=O)CCn2nnnc2C)CC1(C)C | 19.3%
11 | CC(C)(C)n1ncc2c(=O)[nH]c(N3CCC4(CCCCC4)C3)nc21 | -2.75%
12 | CC(C)c1nnc(CN2C(=O)OC[C@@H]2C(C)C)o1 | -5.17%
13 | Cc1cc(C(N)=O)ccc1NC(=O)c1nc(N2CCCCC2)ncc1Cl | 3.51%
14 | CNC(=O)COC(=O)c1ccoc1CN1c2ccccc2CC1C (centres undefined) | 0.373%
15 | CCC(=O)NC1CCCN(c2cncc(OCc3ccccc3)n2)C1 (centres undefined) | -0.318%
16 | CC(C)c1cc(=O)[nH]c(C(C)(C)N)n1 | -3.05%
17 | CCC(C(=O)N1CCCN(CCN(C)C)CC1)N1CCCC1=O (centres undefined) | 0.544%
18 | NC(=O)CN1CCCC(C(=O)N2CCC(O)(c3ccccc3)CC2)C1 (centres undefined) | 31%
19 | CCOc1ccc(SCCS(=O)(=O)CC)cc1 | -6.32%
20 | CC(C)=CCn1ncc(N2CCOCC2)cc1=O | -1.75%
21 | CC(C)C(=O)N1CCC12CCCN(C(=O)c1ccnnc1)C2 (centres undefined) | -6.79%
22 | CN1CCN(Cc2nnc(C3CCN(C4CCCCC4)CC3)n2C)CC1 | -27.4%
23 | CN1C(=O)CC(c2cnn(C)c2)C12CCN(C(=O)c1cscn1)CC2 (centres undefined) | -2.36%

Row | SMILES | cytotoxicity at 70.5 h
24 | CCNC(=O)c1cc2n(n1)CCCO2 | -12.7%
25 | C[S+]([O-])CCNCc1ccc(OCc2cscn2)cc1 (centres undefined) | 1.77%
26 | CC(Cn1ccnc1)NC(=O)NCCNC(=O)C(C)C (centres undefined) | 16.2%
27 | COc1ccc(CNCC2CCN(CCO)CC2)cc1F | -5.24%
28 | O=c1c2cc3c(cc2nnn1Cc1ccccc1)OCCO3 | -2.96%
29 | O=C(Cc1cccc(F)c1)NCCNCC1CNc2ccnn2C1 (centres undefined) | 15.5%
30 | CN(Cc1cc(-c2ccncc2)no1)C(=O)[C@@H]1CSCN1C | -13.1%
31 | CC(=O)N1CCCN(C(=O)NC(C)c2csc3ccccc23)CC1 (centres undefined) | -6.35%
32 | CCn1c(C)nnc1CN(C)C1CCN(CCc2cccs2)C1 (centres undefined) | 10.5%
33 | COCCN1CC[C@]2(CN(Cc3ccccn3)C[C@H]2C)C1=O | 1.87%
34 | CC(NCc1ccnc(OC2CCC2)c1)c1cnn(C)c1 (centres undefined) | -15.1%
35 | CC1CN(C(=O)c2ccnc(OCCN(C)C)c2)c2ccccc21 (centres undefined) | -14.8%
36 | Cc1ccccc1C(C)NC(=O)Cc1c(C)nc2cc(=O)[nH]n2c1C (centres undefined) | -10.1%
37 | CC(C)CNC(=O)CNC(=O)Nc1cccc(Cl)c1-n1cccn1 | 1.42%
38 | Cn1nnc2cc(C(=O)N3CCC(Nc4cccnn4)CC3)ccc21 | -15.7%
39 | CN(C(=O)NCCN1CCOCC1)C1CCN(c2ccccc2)C1=O (centres undefined) | -14.1%
40 | COCC(=O)NCCc1ccc(Cl)s1 | -9.93%
41 | CN1CCCN(C(=O)NCCNc2ncccn2)CC1 | 17.7%
42 | O=C(C1CCN(c2ncnc3cccc(F)c23)CC1)N1CCCC1 | 8.28%
43 | CCN1CC(COC(=O)c2cc(Br)ccc2F)CC1=O (centres undefined) | 0.441%
44 | Cc1cc2ncn(C[C@]3(O)CCCN4CCCC[C@@H]43)c2cc1C | -15%
45 | Cc1noc(C)c1S(=O)(=O)N1CCC(Oc2ccccn2)CC1 | 10%
46 | Cc1[nH]nc(CCC(=O)NCC2COc3ccccc3C2)c1C (centres undefined) | -6.82%

Row | SMILES | cytotoxicity at 70.5 h
47 | CC(C)CS(=O)(=O)CCNC(=O)Nc1cccc2ncccc12 | 19.9%
48 | CC(CN1CCCC1=O)NC(=O)Nc1cccnc1-n1cccn1 (centres undefined) | 35.4%
49 | COc1ccc(-n2cnnc2SCC(=O)N(C)C(C)C)cn1 | -6.69%
50 | Cc1ccccc1CC(=O)NCCNc1nccc(C(F)(F)F)n1 | -8.29%
51 | COCCOCC(C)NC(=O)COc1nn(C)c2nc(C)cc(C)c12 (centres undefined) | -11%
52 | NS(=O)(=O)N1CCC(C(=O)Nc2cccc(OC(F)F)c2)CC1 | 1.39%
53 | CC(c1nc(C2CC2)no1)N1CCN(CCCN2CCCC2=O)CC1 (centres undefined) | 3.52%
54 | O=C(c1ccc[nH]1)N1C[C@H]2CC[C@@H]1CN(c1ncccn1)C2 | -8.11%
55 | COCCNC(=O)[C@H]1C[C@@H]2CCN(CCc3ccccc3)C[C@H]2O1 | -11.2%
56 | Cc1ccc(C)c(OCCN(C)C(=O)C2CCCN2C(N)=O)c1C (centres undefined) | -2.41%
57 | c1cnn(Cc2ccc(CN3CCC4(CCCNC4)C3)cc2)c1 (centres undefined) | 21.4%
58 | Cn1cc(C(=O)N2CCCCC2CCc2ccccc2)cn1 (centres undefined) | -10.6%
59 | COc1ccc(CNC(=O)NC(C)Cn2cccn2)cc1O (centres undefined) | -16.1%
60 | Cc1cccc(-c2nc(C)nn2CC(=O)NC2CCCC2)c1 | 3.32%
61 | O=C(c1ccco1)N1CCC2(CC1)CCN(c1ncccn1)CC2 | 4.21%
62 | CCc1cnc2c(c1NCc1ccc(OC)cc1)c(=O)n(C)c(=O)n2C | 3.22%
63 | CCCc1noc(C(C)N2CCN(Cc3nc(C)c(C)o3)CC2)n1 (centres undefined) | 0.969%
64 | Cc1sc(C(=O)N(C)S(C)(=O)=O)cc1-c1ccc(F)cc1 | -2.76%
65 | CCOc1ncccc1C(=O)NCCN(CC)C1CC1 | 0.543%
66 | Cc1ccc(C(=O)N2CCCC(Nc3ccc(F)cc3)C2)cc1 (centres undefined) | -1.63%
67 | c1ccc(Cn2cc(CNC3CCc4ncnn4C3)cn2)cc1 (centres undefined) | -7.61%
68 | CC(C)(NCC(=O)NCC(F)(F)F)c1ccc2c(c1)OCCO2 | -16.8%
69 | Cc1ccc(C(=O)N2CCC3(CC2)COCCN(S(C)(=O)=O)C3)cc1C | -6.37%

Row | SMILES | cytotoxicity at 70.5 h
70 | CCn1nc(C)c(C(=O)N2CCC(Nc3ccc(C)nn3)CC2)c1C | -106%
71 | COCCN1C(=O)CC[C@]12CC[C@@H](NCc1cccc(C)n1)CC2 | 0.785%
72 | c1c(-c2nc(CN3CCOCC3)no2)nnn1CC1CCCCC1 | -13.5%
73 | Cc1ccc(-n2cc(C(=O)NCC(C)Cn3cccn3)nn2)cc1 (centres undefined) | -14.5%
74 | CC(C)Oc1ncccc1CNC(=O)N1CCCC1c1ccsc1 (centres undefined) | -0.144%
75 | COCCCN(C(=O)c1ccc(-n2ccnc2)cc1)C1CCN(C)CC1 | 35.1%
76 | CN1CC(=O)N(c2ccsc2)CC12CCN(C(=O)c1ccccc1)C2 (centres undefined) | -12.7%
77 | O=C(O)c1cccc(CC2CCN(c3cnccn3)CC2)c1 | -2.92%
78 | CCNC(=O)NC(=O)CN1CCOC(c2ccccc2Cl)C1 (centres undefined) | -9.68%
79 | CN(Cc1ccsc1)C(=O)Nc1ccc(S(=O)(=O)N(C)C)cc1 | 3.55%
80 | CC(=O)Nc1ccc(Cl)c(C(=O)N(C)C(C)c2ccncn2)c1 (centres undefined) | -0.237%
81 | Cc1noc(CCCNC(=O)N2CCc3ccccc3C2CO)n1 (centres undefined) | 14.9%
82 | Cn1cc(NC(=O)CNC(=O)N2CCN(c3cccc(Cl)c3)CC2)cn1 | -4.74%
83 | COc1cc(C(=O)NS(=O)(=O)c2cncc(Br)c2)cc(OC)c1C | -8.02%
84 | Cn1cc(CC(=O)N2CCCC(c3ccn[nH]3)C2)cn1 (centres undefined) | -1.63%
85 | Cn1cccc1C(=O)N1CCn2cc(CN3CCCC3)nc2C1 | -1.14%
86 | CC(C)N1[C@H](Cn2cncn2)C[C@@H]2CN(c3ncccn3)CC[C@@H]21 | -0.391%
87 | Cc1nn(C)c(C)c1C1CCCN1C(=O)c1cc(C(N)=O)cs1 (centres undefined) | -6.04%
88 | COc1coc(CN2CCCC(CCc3ccc(F)cc3)C2)cc1=O (centres undefined) | 2.53%
89 | O=C(Nc1cccc(F)c1)N1CCC(CO)(Nc2ccccc2)CC1 | -5.91%
90 | COc1ccc(CNc2nc(C3CC3)nc3c(C)nn(C)c23)cc1 | -0.926%
91 | CCC1(C(=O)O)CCCN(C(=O)c2ccc(O)c(Cl)c2)C1 (centres undefined) | -4.39%
92 | CN1CCCC(c2nccnc2-c2cccc(Cl)c2)C1 (centres undefined) | -9.62%

Row | SMILES | cytotoxicity at 70.5 h
93 | Cc1cc(S(C)(=O)=O)c(C)c(S(=O)(=O)NC2CCCC2)c1 | -8.42%
94 | COc1ccc(-c2cn3c(n2)CO[C@@H](CNCc2ccccn2)C3)cc1 | -0.00582%
95 | CCc1nnc2n1CCN(Cc1ccc3c(c1)OCCO3)C2 | 15.4%
96 | Cc1cc(N2CCN(Cc3nccn3C)CC2)cc(C)n1 | 18.4%
97 | Fc1cccc(CNCC2OCCc3cn(CC4CCOCC4)nc32)c1 (centres undefined) | -5.44%
98 | COCc1cncc2c1CCN(C(=O)c1ccc(C)o1)C2 | 4.32%
99 | CS(=O)(=O)NCCNC(=O)NC1(c2ccc(Cl)cc2)CCC1 | 16.5%
100 | CCn1cc(-c2cc(C(F)F)n3nc(CCC(=O)O)nc3n2)cn1 | -2.48%
101 | CC1CN(Cc2ccc(-n3cccn3)cc2)CCO1 (centres undefined) | 0.696%
102 | c1ccc2oc(CCCN3CCc4cncnc4C3)nc2c1 | -2.93%
103 | COCc1noc(-c2ccc(N3CCCCC3CCCO)nc2)n1 (centres undefined) | -3.48%
104 | CS(=O)(=O)CC(=O)NCC1OCCc2cn(CC3CC3)nc21 (centres undefined) | -1.93%
105 | Cc1nc(CCCNC(=O)Nc2ccc(F)cc2F)n[nH]1 | -6.94%
106 | Cc1nn(C)c(C)c1CN1CCCC(c2ccc(C(=O)O)cc2)C1 (centres undefined) | -3.35%
107 | CC(C)NC(=O)c1ccn(COc2c(Cl)cccc2Cl)n1 | -8.01%
108 | CC(=O)N1C[C@@H]2CC[C@H](C1)N(S(=O)(=O)c1ccc(C#N)cc1Cl)C2 | -12.7%
109 | CCCC(C)(C)NC(=O)CCN1CCOC1=O | 0.72%
110 | Cc1cccc(OCCSCCn2nc3ccccn3c2=O)c1 | -11%
111 | Cc1noc(C)c1S(=O)(=O)NC(=O)COc1ccc2c(c1)CCC2 | -13.5%
112 | OCc1cn([C@@H]2c3ccccc3C3(CCNCC3)[C@H]2O)nn1 | -9%
113 | Cc1cc(C(=O)N2CC[C@H]3[C@H]2CCN3S(C)(=O)=O)c(C)o1 | 0.739%
114 | CC(=O)N1CCC(N[C@@H]2CO[C@H](CNC(=O)C3CCCC3)[C@H]2O)CC1 | -5.38%
